Results as given in the NIST ThermoML archive (doi:10.1021/je0496140).
± gives the expanded uncertainty stated by the source.

Tests used:
[1] = xn = mol fraction of the nth substance listed; conditions: 101.33 kPa, Liquid
[2] = 101.33 kPa, Liquid

CCCCCl [1-chlorobutane] + CCC(C)O
[1]
Conditions	mass density [kg/m3]	viscosity [mPa·s]
288.15 K, x2 = 0.05	887.1 ± 0.38	–
288.15 K, x2 = 0.0965	–	0.496 ± 0.007
288.15 K, x2 = 0.1177	881.38 ± 0.4	–
288.15 K, x2 = 0.1435	879.24 ± 0.4	–
288.15 K, x2 = 0.1962	874.99 ± 0.41	–
288.15 K, x2 = 0.1973	–	0.542 ± 0.008
288.15 K, x2 = 0.2227	872.88 ± 0.42	–
288.15 K, x2 = 0.2962	–	0.601 ± 0.008
288.15 K, x2 = 0.34	863.63 ± 0.45	–
288.15 K, x2 = 0.3934	–	0.688 ± 0.009
288.15 K, x2 = 0.4058	858.45 ± 0.46	–
288.15 K, x2 = 0.4104	858.09 ± 0.46	–
288.15 K, x2 = 0.4917	–	0.805 ± 0.011
288.15 K, x2 = 0.4986	851.12 ± 0.48	–
288.15 K, x2 = 0.5241	849.12 ± 0.49	–
288.15 K, x2 = 0.5527	846.87 ± 0.49	–
288.15 K, x2 = 0.5923	–	0.995 ± 0.013
288.15 K, x2 = 0.6114	842.23 ± 0.51	–
288.15 K, x2 = 0.6634	838.14 ± 0.52	–
288.15 K, x2 = 0.6919	–	1.286 ± 0.016
288.15 K, x2 = 0.7388	832.24 ± 0.53	–
288.15 K, x2 = 0.7931	–	1.764 ± 0.022
288.15 K, x2 = 0.7984	827.45 ± 0.54	–
288.15 K, x2 = 0.8286	824.99 ± 0.55	–
288.15 K, x2 = 0.884	820.5 ± 0.56	–
288.15 K, x2 = 0.8933	–	2.648 ± 0.033
288.15 K, x2 = 0.9367	816.07 ± 0.57	–
298.15 K, x2 = 0.0965	–	0.444 ± 0.006
298.15 K, x2 = 0.1973	–	0.478 ± 0.007
298.15 K, x2 = 0.2962	–	0.524 ± 0.007
298.15 K, x2 = 0.3934	–	0.587 ± 0.008
298.15 K, x2 = 0.4917	–	0.675 ± 0.009
298.15 K, x2 = 0.5923	–	0.811 ± 0.011
298.15 K, x2 = 0.6919	–	1.011 ± 0.013
298.15 K, x2 = 0.7931	–	1.334 ± 0.017
298.15 K, x2 = 0.8933	–	1.901 ± 0.024
308.15 K, x2 = 0.0965	–	0.399 ± 0.006
308.15 K, x2 = 0.1007	860.49 ± 0.42	–
308.15 K, x2 = 0.1941	853.08 ± 0.44	–
308.15 K, x2 = 0.1973	–	0.426 ± 0.006
308.15 K, x2 = 0.2775	846.72 ± 0.46	–
308.15 K, x2 = 0.2962	–	0.462 ± 0.007
308.15 K, x2 = 0.3881	838.47 ± 0.48	–
308.15 K, x2 = 0.3934	–	0.51 ± 0.007
308.15 K, x2 = 0.4876	831.15 ± 0.5	–
308.15 K, x2 = 0.4917	–	0.577 ± 0.008
308.15 K, x2 = 0.5897	823.73 ± 0.52	–
308.15 K, x2 = 0.5923	–	0.676 ± 0.009
308.15 K, x2 = 0.6919	–	0.818 ± 0.011
308.15 K, x2 = 0.6927	816.37 ± 0.54	–
308.15 K, x2 = 0.7931	–	1.034 ± 0.014
308.15 K, x2 = 0.795	808.99 ± 0.56	–
308.15 K, x2 = 0.8933	–	1.419 ± 0.018
308.15 K, x2 = 0.8963	801.67 ± 0.58	–
318.15 K, x2 = 0.0864	850.35 ± 0.43	–
318.15 K, x2 = 0.0965	–	0.362 ± 0.006
318.15 K, x2 = 0.1906	842.1 ± 0.45	–
318.15 K, x2 = 0.1973	–	0.382 ± 0.006
318.15 K, x2 = 0.2732	835.88 ± 0.47	–
318.15 K, x2 = 0.2962	–	0.41 ± 0.006
318.15 K, x2 = 0.382	828 ± 0.49	–
318.15 K, x2 = 0.3934	–	0.45 ± 0.007
318.15 K, x2 = 0.4862	820.61 ± 0.51	–
318.15 K, x2 = 0.4917	–	0.498 ± 0.007
318.15 K, x2 = 0.5852	813.65 ± 0.53	–
318.15 K, x2 = 0.5923	–	0.571 ± 0.008
318.15 K, x2 = 0.6823	806.95 ± 0.55	–
318.15 K, x2 = 0.6919	–	0.676 ± 0.009
318.15 K, x2 = 0.7865	799.78 ± 0.57	–
318.15 K, x2 = 0.7931	–	0.825 ± 0.011
318.15 K, x2 = 0.8928	792.59 ± 0.59	–
318.15 K, x2 = 0.8933	–	1.072 ± 0.014

CCCCCl [1-chlorobutane]
[2]
Conditions	mass density [kg/m3]	viscosity [mPa·s]
288.15 K	891.87 ± 0.37	0.477 ± 0.007
298.15 K	880.18 ± 0.39	0.429 ± 0.006
303.15 K	875.19 ± 0.39	0.409 ± 0.006
308.15 K	869.64 ± 0.4	0.39 ± 0.006
313.15 K	863.94 ± 0.4	0.372 ± 0.006
318.15 K	858.31 ± 0.41	0.354 ± 0.005

CCCCCl [1-chlorobutane] + CC(C)CO
[1]
Conditions	mass density [kg/m3]	viscosity [mPa·s]
288.15 K, x2 = 0.0369	888.52 ± 0.37	–
288.15 K, x2 = 0.0769	885.16 ± 0.38	–
288.15 K, x2 = 0.1003	–	0.511 ± 0.007
288.15 K, x2 = 0.1526	878.94 ± 0.38	–
288.15 K, x2 = 0.1993	–	0.568 ± 0.008
288.15 K, x2 = 0.2287	872.74 ± 0.39	–
288.15 K, x2 = 0.2853	868.15 ± 0.4	–
288.15 K, x2 = 0.2979	–	0.654 ± 0.009
288.15 K, x2 = 0.3791	860.52 ± 0.41	–
288.15 K, x2 = 0.3954	–	0.784 ± 0.01
288.15 K, x2 = 0.4421	855.33 ± 0.41	–
288.15 K, x2 = 0.496	–	0.948 ± 0.012
288.15 K, x2 = 0.5564	845.76 ± 0.42	–
288.15 K, x2 = 0.5739	844.3 ± 0.43	–
288.15 K, x2 = 0.5936	–	1.198 ± 0.015
288.15 K, x2 = 0.625	839.91 ± 0.43	–
288.15 K, x2 = 0.6843	834.73 ± 0.44	–
288.15 K, x2 = 0.6894	–	1.57 ± 0.019
288.15 K, x2 = 0.7309	830.64 ± 0.44	–
288.15 K, x2 = 0.7517	828.8 ± 0.44	–
288.15 K, x2 = 0.7555	828.45 ± 0.45	–
288.15 K, x2 = 0.7567	828.35 ± 0.45	–
288.15 K, x2 = 0.7923	–	2.196 ± 0.026
288.15 K, x2 = 0.849	819.9 ± 0.46	–
288.15 K, x2 = 0.8912	–	3.098 ± 0.036
288.15 K, x2 = 0.9196	813.2 ± 0.46	–
288.15 K, x2 = 0.9806	807.26 ± 0.47	–
298.15 K, x2 = 0.1003	–	0.454 ± 0.007
298.15 K, x2 = 0.1993	–	0.499 ± 0.007
298.15 K, x2 = 0.2979	–	0.567 ± 0.008
298.15 K, x2 = 0.3954	–	0.663 ± 0.009
298.15 K, x2 = 0.496	–	0.787 ± 0.01
298.15 K, x2 = 0.5936	–	0.97 ± 0.012
298.15 K, x2 = 0.6894	–	1.23 ± 0.015
298.15 K, x2 = 0.7923	–	1.669 ± 0.02
298.15 K, x2 = 0.8912	–	2.284 ± 0.027
308.15 K, x2 = 0.1003	–	0.408 ± 0.006
308.15 K, x2 = 0.1006	861.12 ± 0.4	–
308.15 K, x2 = 0.1959	853.68 ± 0.41	–
308.15 K, x2 = 0.1993	–	0.445 ± 0.006
308.15 K, x2 = 0.277	847.47 ± 0.42	–
308.15 K, x2 = 0.2979	–	0.497 ± 0.007
308.15 K, x2 = 0.3894	838.94 ± 0.43	–
308.15 K, x2 = 0.3954	–	0.574 ± 0.008
308.15 K, x2 = 0.4895	831.33 ± 0.44	–
308.15 K, x2 = 0.496	–	0.663 ± 0.009
308.15 K, x2 = 0.5863	823.9 ± 0.45	–
308.15 K, x2 = 0.5936	–	0.801 ± 0.01
308.15 K, x2 = 0.6894	–	0.986 ± 0.012
308.15 K, x2 = 0.6914	815.7 ± 0.46	–
308.15 K, x2 = 0.7923	–	1.295 ± 0.016
308.15 K, x2 = 0.7941	807.44 ± 0.47	–
308.15 K, x2 = 0.8912	–	1.724 ± 0.021
308.15 K, x2 = 0.8989	798.78 ± 0.48	–
318.15 K, x2 = 0.0905	850.62 ± 0.42	–
318.15 K, x2 = 0.1003	–	0.369 ± 0.006
318.15 K, x2 = 0.1869	843.28 ± 0.43	–
318.15 K, x2 = 0.1993	–	0.397 ± 0.006
318.15 K, x2 = 0.2712	837.05 ± 0.43	–
318.15 K, x2 = 0.2979	–	0.44 ± 0.006
318.15 K, x2 = 0.3772	829.29 ± 0.44	–
318.15 K, x2 = 0.3954	–	0.498 ± 0.007
318.15 K, x2 = 0.4806	821.73 ± 0.45	–
318.15 K, x2 = 0.496	–	0.567 ± 0.008
318.15 K, x2 = 0.5812	814.29 ± 0.46	–
318.15 K, x2 = 0.5936	–	0.682 ± 0.009
318.15 K, x2 = 0.6819	806.85 ± 0.47	–
318.15 K, x2 = 0.6894	–	0.808 ± 0.01
318.15 K, x2 = 0.7816	799.34 ± 0.48	–
318.15 K, x2 = 0.7923	–	1.025 ± 0.013
318.15 K, x2 = 0.8896	791.03 ± 0.49	–
318.15 K, x2 = 0.8912	–	1.33 ± 0.016
